Measured values taken from the NIST ThermoML archive (doi:10.1016/j.jct.2014.03.022).
± gives the expanded uncertainty stated by the source.

Test: xn = mol fraction of the nth substance listed
Conditions: for surface tension liquid-gas: Wilhelmy plate method; for viscosity: 101.3 kPa, Liquid, Concentric cylinders viscometry

CCCCCCCCO [octan-1-ol] + CN(C)C=O
Conditions	surface tension liquid-gas, 298.15 K [mN/m]	surface tension liquid-gas, 303.15 K [mN/m]	surface tension liquid-gas, 308.15 K [mN/m]	surface tension liquid-gas, 313.15 K [mN/m]	viscosity, 298.15 K [mPa·s]	viscosity, 303.15 K [mPa·s]	viscosity, 308.15 K [mPa·s]	viscosity, 313.15 K [mPa·s]
x2 = 0	27.47 ± 0.52	26.42 ± 0.52	25.41 ± 0.52	24.38 ± 0.52	7.661 ± 0.16	6.402 ± 0.13	5.425 ± 0.11	4.628 ± 0.097
x2 = 0.2198	28.07 ± 0.51	26.98 ± 0.51	25.95 ± 0.51	24.91 ± 0.51	4.082 ± 0.085	3.243 ± 0.068	2.678 ± 0.056	2.2 ± 0.046
x2 = 0.3728	28.37 ± 0.51	27.25 ± 0.51	26.18 ± 0.51	25.13 ± 0.51	2.636 ± 0.055	2.012 ± 0.042	1.646 ± 0.034	1.35 ± 0.028
x2 = 0.5208	28.77 ± 0.51	27.6 ± 0.51	26.5 ± 0.51	25.43 ± 0.51	1.794 ± 0.037	1.355 ± 0.029	1.106 ± 0.023	0.9143 ± 0.019
x2 = 0.6277	29.36 ± 0.51	28.17 ± 0.51	27.05 ± 0.51	25.97 ± 0.51	1.41 ± 0.029	1.089 ± 0.023	0.8992 ± 0.019	0.7523 ± 0.016
x2 = 0.7118	30.1 ± 0.51	28.9 ± 0.51	27.77 ± 0.51	26.7 ± 0.5	1.193 ± 0.025	0.9412 ± 0.02	0.804 ± 0.017	0.7006 ± 0.015
x2 = 0.7877	31.04 ± 0.51	29.85 ± 0.51	28.72 ± 0.5	27.66 ± 0.5	1.052 ± 0.022	0.8817 ± 0.019	0.765 ± 0.016	0.6768 ± 0.015
x2 = 0.8519	32.05 ± 0.51	30.88 ± 0.5	29.76 ± 0.5	28.7 ± 0.5	0.9693 ± 0.021	0.8339 ± 0.018	0.7497 ± 0.016	0.6694 ± 0.015
x2 = 0.9085	33.13 ± 0.5	31.98 ± 0.5	30.87 ± 0.5	29.84 ± 0.5	0.9042 ± 0.019	0.8153 ± 0.017	0.7484 ± 0.016	0.6782 ± 0.015
x2 = 0.9556	34.15 ± 0.5	33.03 ± 0.5	31.92 ± 0.5	30.9 ± 0.5	0.8603 ± 0.018	0.7921 ± 0.017	0.7395 ± 0.016	0.6802 ± 0.015
